Where two headings read alike, the source gives them in different places.
Assays:
C6 cells = assay: C6 tumor growth in nude mice, subcutaneous co-injection; assay type: in vivo, mouse; conditions: vs no treatment control (FIG. 12)
Experimental: (§1) Tumor growth of B16 cells, C6 cells, or MDA435 cells in the presence or absence of ECM, and with or without cisplatin, were examined in nude mice. Cells, ECM and Cisplatin were injected simultaneously subcutaneously in the lower haunch of a nude mouse. Tumor growth was followed over time using photography, measurements of length and width, then finally by weight. FIGS. 8 and 9 show the growth of tumors from C6 cells in nude mice in the presence (FIG. 9) and absence (FIG. 8) of ECM on day 14 post-injection. FIGS. 10 and 11 show the growth of tumors from C6 cells in nude mice in the presence of ECM with cisplatin (FIG. 10) and cisplatin without ECM (FIG. 11) of ECM on day 14 post-injection.

MDA435 cells = assay: MDA435 tumor growth in nude mice, subcutaneous co-injection; assay type: in vivo, mouse
Experimental: as §1

lung cancer = conditions: cited from earlier work

Question: With `N.N.[Cl][Pt][Cl]` [cisplatin] as the compound, how does the “tumor growth over 18 days” value (C6 cells) read?
Answer: Its value is “no growth”.

Question: And the “tumor growth over 25 days” value (MDA435 cells; vs no treatment control (FIG. 14))?
Answer: Its value is “reduction in tumor mass to zero”.

Question: And the tumor growth (MDA435 cells; vs no treatment control (FIGS. 13A-D))?
Answer: Its tumor growth is “reduced or no tumor growth”.

Question: What does the source list for “MEDI4736: an engineered fully-human anti-PD-L1 antibody”?
Answer: ORR (lung cancer; PD-L1+ patients): up to 39%; ORR (lung cancer; PD-L1 negative patients): 5%; ORR (lung cancer; all the patients with lung cancer): 13%

— patent publication US11191780B2, “Extracellular matrix compositions for the treatment of cancer or immunological diseases” (ADAPTIVE BIOLOGIX, INC., priority 2015, dated 2021)
